According to ChEMBL document CHEMBL1159257, “Methyl ethers of podophyllotoxin-related cyclolignans” (J Nat Prod, 1995):

Columns and labels:
Format in all cases: functional, cell-based
HT-29 = assay: Cytotoxicity against human HT-29 cells
P388 = assay: Cytotoxicity against mouse P388 cells
A549 = assay: Cytotoxicity against human A549 cells

## COc1cc([C@@H]2c3cc4c(cc3[C@H](OC)[C@@H](COC(C)=O)[C@@H]2COC(C)=O)OCO4)cc(OC)c1OC
HT-29
  IC50: 9.7 µM
P388
  IC50: 9.7 µM
A549
  IC50: 9.7 µM

## COc1cc([C@@H]2c3cc4c(cc3[C@H](OC)[C@@H](COC(C)=O)[C@H]2COC(C)=O)OCO4)cc(OC)c1OC
HT-29
  IC50: 19.4 µM
P388
  IC50: 19.4 µM
A549
  IC50: > 38.8 µM

## COc1cc([C@@H]2c3cc4c(cc3[C@@H](OC)[C@@H](CO)[C@@H]2CO)OCO4)cc(OC)c1OC
HT-29
  IC50: 11.6 µM
P388
  IC50: 11.6 µM
A549
  IC50: 11.6 µM

## COc1cc([C@@H]2c3cc4c(cc3[C@@H](OC)[C@H]3COC(=O)[C@@H]23)OCO4)cc(OC)c1OC
HT-29
  IC50: 0.06 µM
P388
  IC50: 0.1 µM
A549
  IC50: 0.13 µM

## COc1cc([C@@H]2c3cc4c(cc3[C@@H](OC)[C@@H](COC(C)=O)[C@@H]2COC(C)=O)OCO4)cc(OC)c1OC
HT-29
  IC50: 9.7 µM
P388
  IC50: 9.7 µM
A549
  IC50: 9.7 µM

## COc1cc([C@@H]2c3cc4c(cc3[C@@H](OC)[C@@H](COC(C)=O)[C@H]2COC(C)=O)OCO4)cc(OC)c1OC
HT-29
  IC50: 9.7 µM
P388
  IC50: 9.7 µM
A549
  IC50: 9.7 µM

## COc1cc([C@@H]2c3cc4c(cc3[C@H](O)[C@H]3COC(=O)[C@H]23)OCO4)cc(OC)c1OC [PODOFILOX]
HT-29
  IC50: 0.0029 µM

## COc1cc([C@@H]2c3cc4c(cc3[C@H](O)[C@H]3COC(=O)[C@@H]23)OCO4)cc(OC)c1OC [AXL-1717]
HT-29
  IC50: 6 µM
P388
  IC50: 6 µM
A549
  IC50: 6 µM

## COc1cc([C@@H]2c3cc4c(cc3[C@@H](OC)[C@H]3COC(=O)[C@H]23)OCO4)cc(OC)c1OC
HT-29
  IC50: 1.2 µM
P388
  IC50: 0.06 µM
A549
  IC50: 0.06 µM

## COc1cc([C@@H]2c3cc4c(cc3[C@@H](OC)[C@@H](CO)[C@H]2CO)OCO4)cc(OC)c1OC
HT-29
  IC50: 11.6 µM
P388
  IC50: 11.6 µM
A549
  IC50: 11.6 µM

## COc1cc([C@@H]2c3cc4c(cc3[C@@H](Cl)[C@H]3COC(=O)[C@H]23)OCO4)cc(OC)c1OC
HT-29
  IC50: 1.2 µM
P388
  IC50: 0.6 µM
A549
  IC50: 0.6 µM

## COc1cc([C@@H]2c3cc4c(cc3[C@H](OC)[C@@H](CO)[C@H]2CO)OCO4)cc(OC)c1OC
HT-29
  IC50: 23.2 µM
P388
  IC50: 23.2 µM
A549
  IC50: 46.3 µM

## COc1cc([C@@H]2c3cc4c(cc3[C@@H](O)[C@H]3COC(=O)[C@H]23)OCO4)cc(OC)c1OC [EPIPODOPHYLLOTOXIN]
HT-29
  IC50: 0.06 µM
P388
  IC50: 0.06 µM
A549
  IC50: 0.06 µM

## COc1cc([C@@H]2c3cc4c(cc3C=C3COC(=O)[C@H]32)OCO4)cc(OC)c1OC
HT-29
  IC50: 0.025 µM
P388
  IC50: 0.013 µM
A549
  IC50: 0.025 µM

## COc1cc([C@@H]2c3cc4c(cc3[C@H](OC)[C@H]3COC(=O)[C@@H]23)OCO4)cc(OC)c1OC
HT-29
  IC50: 0.23 µM
P388
  IC50: 0.12 µM
A549
  IC50: 0.12 µM

## COc1cc([C@@H]2c3cc4c(cc3[C@H](OC)[C@H]3COC(=O)[C@H]23)OCO4)cc(OC)c1OC
HT-29
  IC50: 0.06 µM
P388
  IC50: 0.06 µM
A549
  IC50: 0.06 µM
